Measured values from ChEMBL document CHEMBL5465560, “Selectivity Literature for EUbOPEN Chemogenomic Library” (2024).
Values belong to the compound of their own block, whether it stands above or below them.

Legend:
[1] = biological target: Serine/threonine-protein kinase SMG1 (Homo sapiens) (UniProt Q96Q15); test: Selectivity interaction (ActivX KiNativ screen (kinase selectivity in THP-1 cell lysates)) EUB0000639a SMG1; assay type: subcellular; conditions: lysate
[2] = biological target: Proto-oncogene tyrosine-protein kinase Src (Homo sapiens, UniProt P12931); test: Selectivity interaction (ActivX KiNativ screen (kinase selectivity in THP-1 cell lysates)) EUB0000639a SRC; assay type: subcellular; conditions: lysate
[3] = biological target: Tyrosine-protein kinase Yes (Homo sapiens) (UniProt P07947); test: Selectivity interaction (ActivX KiNativ screen (kinase selectivity in THP-1 cell lysates)) EUB0000639a YES1; assay type: subcellular; conditions: lysate
[4] = biological target: Mitogen-activated protein kinase kinase kinase 9 (Homo sapiens) (UniProt P80192); test: Selectivity interaction (KinomeScan (DiscoverX)) EUB0000695a MAP3K9; conditions: at 100 nM
[5] = biological target: T1, Tyrosine-protein kinase Tec (Homo sapiens) (UniProt P42680); conditions: at 10 µM
T1 sequence (whole entry): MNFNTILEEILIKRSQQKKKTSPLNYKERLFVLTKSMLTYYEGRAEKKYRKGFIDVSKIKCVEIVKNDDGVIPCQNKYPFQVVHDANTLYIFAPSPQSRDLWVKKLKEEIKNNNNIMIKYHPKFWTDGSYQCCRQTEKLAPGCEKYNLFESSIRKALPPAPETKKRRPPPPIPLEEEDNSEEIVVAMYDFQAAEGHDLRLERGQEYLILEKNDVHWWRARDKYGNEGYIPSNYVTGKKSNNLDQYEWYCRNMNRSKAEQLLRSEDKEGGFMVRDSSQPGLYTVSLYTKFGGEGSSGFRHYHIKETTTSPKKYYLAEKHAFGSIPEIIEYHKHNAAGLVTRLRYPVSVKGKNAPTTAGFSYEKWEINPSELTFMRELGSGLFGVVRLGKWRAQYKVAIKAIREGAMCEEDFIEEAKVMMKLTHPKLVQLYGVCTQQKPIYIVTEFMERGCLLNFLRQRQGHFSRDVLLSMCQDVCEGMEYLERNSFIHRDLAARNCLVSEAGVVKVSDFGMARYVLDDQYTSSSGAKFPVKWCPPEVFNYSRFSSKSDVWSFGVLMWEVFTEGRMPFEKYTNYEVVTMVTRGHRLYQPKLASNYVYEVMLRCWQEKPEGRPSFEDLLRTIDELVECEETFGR

[6] = biological target: Cyclin-dependent kinase 8 (Homo sapiens, UniProt P49336); test: Selectivity interaction (KinomeScan (DiscoverX)) EUB0001079a CDK8; conditions: at 1 µM
[7] = biological target: Mitogen-activated protein kinase kinase kinase kinase 5 (Homo sapiens) (UniProt Q9Y4K4); test: Selectivity interaction (ProQinase) EUB0000171b MAP4K5
[8] = biological target: T2, Interleukin-1 receptor-associated kinase 4 (Homo sapiens) (UniProt Q9NWZ3); test: Selectivity interaction (KinomeScan (DiscoverX)) EUB0000092b IRAK4; conditions: at 10 µM
T2 sequence (whole entry): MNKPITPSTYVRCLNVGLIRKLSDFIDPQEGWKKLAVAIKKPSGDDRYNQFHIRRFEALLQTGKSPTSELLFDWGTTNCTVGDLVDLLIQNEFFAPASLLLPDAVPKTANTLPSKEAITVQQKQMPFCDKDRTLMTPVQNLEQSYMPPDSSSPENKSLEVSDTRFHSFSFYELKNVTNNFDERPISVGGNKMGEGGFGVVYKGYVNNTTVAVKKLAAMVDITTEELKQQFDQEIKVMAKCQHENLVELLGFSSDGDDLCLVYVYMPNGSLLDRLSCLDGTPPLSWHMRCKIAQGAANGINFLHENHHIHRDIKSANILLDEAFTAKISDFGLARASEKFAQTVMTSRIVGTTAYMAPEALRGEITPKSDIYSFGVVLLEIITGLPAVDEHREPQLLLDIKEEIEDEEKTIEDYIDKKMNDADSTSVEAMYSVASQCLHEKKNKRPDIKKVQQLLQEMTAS

[9] = biological target: T3, Eukaryotic elongation factor 2 kinase (Homo sapiens) (UniProt O00418); test: Selectivity interaction (Upstate Kinase Profiler service (Millipore)) EUB0000056c EEF2K; conditions: at 1 µM
T3 sequence (whole entry): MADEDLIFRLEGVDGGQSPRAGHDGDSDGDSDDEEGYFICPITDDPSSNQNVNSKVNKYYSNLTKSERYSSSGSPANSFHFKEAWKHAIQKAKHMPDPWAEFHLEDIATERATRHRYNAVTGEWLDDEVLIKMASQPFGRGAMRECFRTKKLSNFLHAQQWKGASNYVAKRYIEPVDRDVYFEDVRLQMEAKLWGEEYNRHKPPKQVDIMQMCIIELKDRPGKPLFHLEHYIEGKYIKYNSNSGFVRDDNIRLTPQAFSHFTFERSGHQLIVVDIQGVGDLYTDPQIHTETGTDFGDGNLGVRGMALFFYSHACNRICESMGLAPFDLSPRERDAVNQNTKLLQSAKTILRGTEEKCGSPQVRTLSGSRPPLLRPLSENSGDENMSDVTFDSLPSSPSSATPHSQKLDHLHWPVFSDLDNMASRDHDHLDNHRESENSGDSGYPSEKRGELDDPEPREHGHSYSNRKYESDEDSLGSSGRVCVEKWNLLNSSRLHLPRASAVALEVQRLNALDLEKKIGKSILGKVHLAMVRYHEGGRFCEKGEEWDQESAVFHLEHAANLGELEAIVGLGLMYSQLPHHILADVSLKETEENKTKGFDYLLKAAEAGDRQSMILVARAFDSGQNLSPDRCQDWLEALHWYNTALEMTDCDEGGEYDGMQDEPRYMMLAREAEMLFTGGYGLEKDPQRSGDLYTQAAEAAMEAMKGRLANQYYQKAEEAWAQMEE

[10] = biological target: Tyrosine-protein kinase Fer (Homo sapiens) (UniProt P16591); test: Selectivity interaction (ActivX KiNativ screen (ex vivo kinase selectivity in human PBMCs)) EUB0001619a FER; assay type: cell-based; conditions: PBMC, at 1 µM
[11] = biological target: MAP/microtubule affinity-regulating kinase 3 (Homo sapiens) (UniProt P27448); test: Selectivity interaction (KinomeScan (DiscoverX)) EUB0000618a MARK3; conditions: at 10 µM
[12] = biological target: G protein-coupled receptor kinase 5 (Homo sapiens, UniProt P34947); test: Selectivity interaction (SelectScreen profiling (Invitrogen)) EUB0000607a GRK5; conditions: at 2 µM
[13] = biological target: T2, Interleukin-1 receptor-associated kinase 4 (Homo sapiens); test: Selectivity interaction (KinomeScan (DiscoverX)) EUB0000607a IRAK4; conditions: at 10 µM
[14] = biological target: Ephrin type-A receptor 2 (Homo sapiens) (UniProt P29317); test: Selectivity interaction (KinomeScan (DiscoverX)) EUB0000666a EPHA2; conditions: at 10 µM

Sequence of Proto-oncogene tyrosine-protein kinase Src (P12931 2-536 limits assumed): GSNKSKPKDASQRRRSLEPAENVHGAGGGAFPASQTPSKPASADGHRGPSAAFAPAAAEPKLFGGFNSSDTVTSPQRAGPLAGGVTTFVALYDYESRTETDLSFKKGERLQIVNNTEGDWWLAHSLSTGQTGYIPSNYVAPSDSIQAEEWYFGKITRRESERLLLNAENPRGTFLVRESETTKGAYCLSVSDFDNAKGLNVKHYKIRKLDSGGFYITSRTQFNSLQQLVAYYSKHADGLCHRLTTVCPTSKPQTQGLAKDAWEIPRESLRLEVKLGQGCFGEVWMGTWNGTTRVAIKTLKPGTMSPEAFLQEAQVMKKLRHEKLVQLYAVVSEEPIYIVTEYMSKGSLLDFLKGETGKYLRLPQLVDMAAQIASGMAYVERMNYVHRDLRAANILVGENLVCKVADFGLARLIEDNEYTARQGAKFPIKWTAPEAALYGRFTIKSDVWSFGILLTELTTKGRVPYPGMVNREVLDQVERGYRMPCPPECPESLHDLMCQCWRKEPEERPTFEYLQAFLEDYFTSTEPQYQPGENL
Sequence of Tyrosine-protein kinase Yes (Homo sapiens) (P07947 2-543 limits assumed): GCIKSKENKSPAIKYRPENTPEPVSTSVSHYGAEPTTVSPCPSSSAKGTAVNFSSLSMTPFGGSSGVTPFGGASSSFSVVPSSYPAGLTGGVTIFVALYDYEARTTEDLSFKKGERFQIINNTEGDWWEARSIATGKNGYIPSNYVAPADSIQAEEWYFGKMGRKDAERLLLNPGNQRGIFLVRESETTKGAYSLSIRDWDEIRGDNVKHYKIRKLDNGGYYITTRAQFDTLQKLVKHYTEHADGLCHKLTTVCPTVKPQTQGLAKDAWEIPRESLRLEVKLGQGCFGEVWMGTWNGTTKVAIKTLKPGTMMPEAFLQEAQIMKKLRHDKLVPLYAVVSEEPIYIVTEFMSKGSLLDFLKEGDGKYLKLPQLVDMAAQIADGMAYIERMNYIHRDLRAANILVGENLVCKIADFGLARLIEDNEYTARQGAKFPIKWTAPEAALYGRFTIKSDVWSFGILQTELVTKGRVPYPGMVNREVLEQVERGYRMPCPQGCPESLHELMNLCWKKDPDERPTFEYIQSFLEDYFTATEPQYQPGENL
Sequence of Serine/threonine-protein kinase SMG1 (Homo sapiens) (Q96Q15 whole entry): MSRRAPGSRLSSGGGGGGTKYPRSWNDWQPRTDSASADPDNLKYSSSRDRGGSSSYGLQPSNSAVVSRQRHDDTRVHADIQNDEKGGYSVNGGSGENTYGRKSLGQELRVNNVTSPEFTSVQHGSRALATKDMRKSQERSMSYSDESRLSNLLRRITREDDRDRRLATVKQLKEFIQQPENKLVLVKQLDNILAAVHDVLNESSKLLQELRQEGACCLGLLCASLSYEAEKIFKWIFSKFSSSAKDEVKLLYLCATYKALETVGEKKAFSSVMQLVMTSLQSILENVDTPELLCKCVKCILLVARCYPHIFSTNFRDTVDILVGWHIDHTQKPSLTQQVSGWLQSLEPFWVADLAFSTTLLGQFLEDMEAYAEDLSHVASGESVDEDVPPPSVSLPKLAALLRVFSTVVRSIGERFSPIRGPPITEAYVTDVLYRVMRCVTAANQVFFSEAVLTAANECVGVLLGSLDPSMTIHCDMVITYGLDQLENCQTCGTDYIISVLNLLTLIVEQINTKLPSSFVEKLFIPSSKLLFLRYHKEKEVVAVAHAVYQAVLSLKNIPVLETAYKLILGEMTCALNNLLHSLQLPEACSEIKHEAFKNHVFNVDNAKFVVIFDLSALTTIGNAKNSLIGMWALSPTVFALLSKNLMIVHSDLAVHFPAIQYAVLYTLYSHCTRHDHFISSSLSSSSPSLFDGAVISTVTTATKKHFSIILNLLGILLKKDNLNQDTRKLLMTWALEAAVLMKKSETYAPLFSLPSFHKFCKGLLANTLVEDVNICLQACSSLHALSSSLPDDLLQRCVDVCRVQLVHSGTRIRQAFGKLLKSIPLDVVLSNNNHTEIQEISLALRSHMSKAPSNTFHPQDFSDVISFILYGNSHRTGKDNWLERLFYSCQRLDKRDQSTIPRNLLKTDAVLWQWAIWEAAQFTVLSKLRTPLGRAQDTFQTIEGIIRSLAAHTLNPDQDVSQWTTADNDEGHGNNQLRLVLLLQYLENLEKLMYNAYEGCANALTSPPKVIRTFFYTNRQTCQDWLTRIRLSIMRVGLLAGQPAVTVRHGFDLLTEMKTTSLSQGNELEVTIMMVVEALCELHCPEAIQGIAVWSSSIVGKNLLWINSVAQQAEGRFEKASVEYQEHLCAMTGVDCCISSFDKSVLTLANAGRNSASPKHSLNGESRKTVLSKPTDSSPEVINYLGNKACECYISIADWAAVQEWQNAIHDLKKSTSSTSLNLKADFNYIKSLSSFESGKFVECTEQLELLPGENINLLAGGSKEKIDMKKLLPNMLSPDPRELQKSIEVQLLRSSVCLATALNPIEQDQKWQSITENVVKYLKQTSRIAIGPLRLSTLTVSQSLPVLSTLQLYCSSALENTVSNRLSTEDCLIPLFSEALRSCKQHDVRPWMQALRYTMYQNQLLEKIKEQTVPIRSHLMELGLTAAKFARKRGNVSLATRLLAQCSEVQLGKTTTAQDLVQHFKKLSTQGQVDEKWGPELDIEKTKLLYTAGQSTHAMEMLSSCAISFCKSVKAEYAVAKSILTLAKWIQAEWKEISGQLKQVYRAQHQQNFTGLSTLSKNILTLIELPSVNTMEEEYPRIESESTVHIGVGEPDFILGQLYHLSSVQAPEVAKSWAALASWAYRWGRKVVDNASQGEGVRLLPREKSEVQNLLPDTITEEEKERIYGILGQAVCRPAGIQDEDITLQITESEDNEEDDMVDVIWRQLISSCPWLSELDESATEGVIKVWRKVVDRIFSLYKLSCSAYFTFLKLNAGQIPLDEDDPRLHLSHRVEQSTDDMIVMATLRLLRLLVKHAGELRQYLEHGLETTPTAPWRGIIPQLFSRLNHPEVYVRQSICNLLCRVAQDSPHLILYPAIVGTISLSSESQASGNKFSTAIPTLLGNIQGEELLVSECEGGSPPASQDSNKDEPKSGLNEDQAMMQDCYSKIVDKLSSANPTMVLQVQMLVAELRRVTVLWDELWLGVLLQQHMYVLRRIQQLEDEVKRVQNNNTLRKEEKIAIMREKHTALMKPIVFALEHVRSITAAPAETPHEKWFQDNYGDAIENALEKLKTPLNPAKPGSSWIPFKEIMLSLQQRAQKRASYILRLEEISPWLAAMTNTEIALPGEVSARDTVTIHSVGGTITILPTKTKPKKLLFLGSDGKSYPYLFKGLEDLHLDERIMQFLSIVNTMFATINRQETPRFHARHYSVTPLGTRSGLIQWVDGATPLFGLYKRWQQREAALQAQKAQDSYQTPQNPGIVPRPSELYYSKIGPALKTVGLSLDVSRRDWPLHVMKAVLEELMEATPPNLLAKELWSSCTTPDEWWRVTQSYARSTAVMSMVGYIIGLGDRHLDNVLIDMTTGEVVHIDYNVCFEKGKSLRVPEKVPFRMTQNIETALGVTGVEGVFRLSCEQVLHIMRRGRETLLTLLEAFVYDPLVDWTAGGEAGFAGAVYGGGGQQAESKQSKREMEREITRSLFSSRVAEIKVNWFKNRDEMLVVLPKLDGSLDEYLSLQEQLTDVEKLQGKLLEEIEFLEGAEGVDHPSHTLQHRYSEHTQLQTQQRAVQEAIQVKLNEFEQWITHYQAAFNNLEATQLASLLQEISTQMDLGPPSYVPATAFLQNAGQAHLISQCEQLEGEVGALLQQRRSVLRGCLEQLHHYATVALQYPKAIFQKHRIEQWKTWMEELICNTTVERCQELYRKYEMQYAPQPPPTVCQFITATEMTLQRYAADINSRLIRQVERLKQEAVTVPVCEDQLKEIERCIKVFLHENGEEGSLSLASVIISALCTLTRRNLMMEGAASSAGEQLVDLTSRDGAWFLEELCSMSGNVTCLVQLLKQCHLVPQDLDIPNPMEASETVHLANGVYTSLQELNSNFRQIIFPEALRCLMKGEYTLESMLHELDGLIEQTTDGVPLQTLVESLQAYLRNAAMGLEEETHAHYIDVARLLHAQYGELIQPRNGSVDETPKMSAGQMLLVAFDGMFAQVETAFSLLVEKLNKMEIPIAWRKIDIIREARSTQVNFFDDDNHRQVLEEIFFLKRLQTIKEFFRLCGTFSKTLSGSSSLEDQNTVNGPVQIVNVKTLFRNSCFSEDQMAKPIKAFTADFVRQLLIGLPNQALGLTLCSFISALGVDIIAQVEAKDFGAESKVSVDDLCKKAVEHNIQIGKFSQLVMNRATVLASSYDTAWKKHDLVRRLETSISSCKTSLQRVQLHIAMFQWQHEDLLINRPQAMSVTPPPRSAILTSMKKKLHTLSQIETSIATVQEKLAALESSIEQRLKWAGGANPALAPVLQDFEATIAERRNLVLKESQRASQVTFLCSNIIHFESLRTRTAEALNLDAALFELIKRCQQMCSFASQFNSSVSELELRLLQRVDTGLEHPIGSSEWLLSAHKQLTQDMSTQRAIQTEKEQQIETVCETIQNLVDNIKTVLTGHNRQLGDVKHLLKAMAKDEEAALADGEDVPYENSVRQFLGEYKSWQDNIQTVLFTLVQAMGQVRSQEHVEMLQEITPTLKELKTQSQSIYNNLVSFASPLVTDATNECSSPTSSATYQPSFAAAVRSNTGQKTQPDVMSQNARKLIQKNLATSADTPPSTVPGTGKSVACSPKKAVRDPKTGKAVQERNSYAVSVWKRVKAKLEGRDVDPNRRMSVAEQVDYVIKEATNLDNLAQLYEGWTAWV

% of inhibition ([1]; at 0.01 µM): 7.7%
% of inhibition ([1]; at 0.04 µM): 1.9%
% of inhibition ([1]; at 0.2 µM): 6.9%
% of inhibition ([1]; at 1 µM): 6.1%
% of inhibition ([1]; at 5 µM): -13.6%
% of inhibition ([2]; at 0.01 µM): -8.5%
% of inhibition ([2]; at 0.04 µM): -0.2%
% of inhibition ([2]; at 0.2 µM): 0.7%
% of inhibition ([2]; at 1 µM): -11%
% of inhibition ([2]; at 5 µM): -13.3%
% of inhibition ([3]; at 0.01 µM): -8.5%
% of inhibition ([3]; at 0.04 µM): -0.2%
% of inhibition ([3]; at 0.2 µM): 0.7%
% of inhibition ([3]; at 1 µM): -11%
% of inhibition ([3]; at 5 µM): -13.3%
Structure (SMILES): CC[C@@H]1[C@H](F)C(=O)N[C@@H]1COc1nccc2cc(C(N)=O)c(OC)cc12 [ZIMLOVISERTIB]

Structure (SMILES): Cc1cc(F)c(C(=O)Nc2cccc(-c3nncn3C(C)C)n2)cc1-n1cnc(C2CC2)c1
% of control [4]: 99%

Structure (SMILES): COCC(=O)NC/C=C/c1ccc2ncnc(Nc3ccc(Oc4ccc(C)nc4)c(C)c3)c2c1 [CP-724714]
% of control [5]: 73%

Structure (SMILES): Nc1cnc(N2CCc3cc(S(=O)(=O)Nc4c(F)cc(Cl)cc4F)cc(N4CCCC4=O)c32)nc1 [TP-020n]
% of control [6]: 100%

% of control ([7]; at 1 µM): 71%
% of control ([7]; at 5 µM): 49%
Structure (SMILES): C=CC(=O)Nc1cccc(C(=O)Nc2ccc(Nc3cc(-c4[nH]c(SC)nc4C)ccn3)cc2)c1

Structure (SMILES): CCC(=O)N1CCN(c2ccc(-n3c(=O)ccc4cnc5ccc(-c6cnc7ccccc7c6)cc5c43)cc2C(F)(F)F)CC1
% of control [8]: 90%

% of inhibition [9]: -6%
Structure (SMILES): Cc1ccc(-c2ccc3c(ccc4sc5c(c43)NC[C@@H](C)NC5=O)n2)cn1

Structure (SMILES): N#Cc1cccc(-c2c[nH]c3ncnc(N4CCOCC4)c23)c1
% of inhibition [10]: 12%

Structure (SMILES): O[C@H]1CC[C@H](Nc2ncc3nc(Nc4c(F)cc(F)cc4F)n([C@H]4CCOC4)c3n2)CC1
% of control [11]: 97%

Structure (SMILES): CNC(=O)Nc1ccc(-c2nc(N3CC4CCC(C3)O4)c3cnn(C4CCC5(CC4)OCCO5)c3n2)cc1
% of inhibition [12]: -4%
% of control [13]: 100%

Structure (SMILES): O=C(NOC[C@H](O)CO)c1ccc(F)c(F)c1Nc1ccc(I)cc1F
% of control [14]: 88%
